Source: patent publication US11365192B2, “Pyridine compound substituted with azole” (TAISHO PHARMACEUTICAL CO., LTD., priority 2017, dated 2022)

Tests used:
human CYP4F2 = human CYP4F2 (Homo sapiens (Human), UniProt P78329); assay: Inhibition test against 20-HETE producing enzyme CYP4F2 (luciferine derivative, luminescence); assay type: biochemical; settings: E. coli membrane fraction expressing human CYP4F2, 2.5 μM luciferine derivative, room temperature 60 minutes
Description: (§1) (1) Inhibition Test for Each Compound of the Present Invention Against 20-HETE Producing Enzymes (CYP4F2 and CYP4A11)
(§2) In the CYP4F2 inhibition test, the reaction solution containing each compound [final concentration of 50 mM, KPO4 (pH 7.4), 2.5 μM luciferine derivative, and 1 mM NADPH] was added to an Escherichia coli membrane fraction (100 μg/mL protein) in which human CYP4F2 had been expressed. In the CYP4A11 inhibition test, the reaction solution containing each compound [final concentration of 100 mM, Tris-HCl (pH 7.5), 60 μM luciferine derivative, 1.3 mM NADP^+, 3.3 mM Glucose 6-Phosphate, 3.3 mM MgCl2, and 0.4 U/mL Glucose 6-Phosphate dehydrogenase] was added to an Escherichia coli membrane fraction (100 μg/mL protein) in which human CYP4A11 had been expressed. Following this, the membrane fraction was left to stand at room temperature for 60 minutes to perform an enzymatic reaction. After the reaction, a luciferine detection reagent was added, and the luminescence value was measured using a plate reader. By using that value, the percent inhibition of 20-HETE producing enzyme (%) was calculated according to the equation described below, and the 50% inhibitory concentration (IC50 value) for each compound was calculated. Percent inhibition of 20-HETE producing enzyme (%)=[1−(A−B)/(C−B)]*100
(§3) A: Luminescence value with addition of compound
(§4) B: Luminescence value without addition of compound and enzyme

human CYP4A11 = human CYP4A11 (Homo sapiens (Human), UniProt Q02928); assay: Inhibition test against 20-HETE producing enzyme CYP4A11 (luciferine derivative, luminescence); assay type: biochemical; settings: E. coli membrane fraction expressing human CYP4A11, 60 μM luciferine derivative, room temperature 60 minutes
Description: as §1, §2, §3, §4

Sequence of human CYP4A11 (Q02928 5-519): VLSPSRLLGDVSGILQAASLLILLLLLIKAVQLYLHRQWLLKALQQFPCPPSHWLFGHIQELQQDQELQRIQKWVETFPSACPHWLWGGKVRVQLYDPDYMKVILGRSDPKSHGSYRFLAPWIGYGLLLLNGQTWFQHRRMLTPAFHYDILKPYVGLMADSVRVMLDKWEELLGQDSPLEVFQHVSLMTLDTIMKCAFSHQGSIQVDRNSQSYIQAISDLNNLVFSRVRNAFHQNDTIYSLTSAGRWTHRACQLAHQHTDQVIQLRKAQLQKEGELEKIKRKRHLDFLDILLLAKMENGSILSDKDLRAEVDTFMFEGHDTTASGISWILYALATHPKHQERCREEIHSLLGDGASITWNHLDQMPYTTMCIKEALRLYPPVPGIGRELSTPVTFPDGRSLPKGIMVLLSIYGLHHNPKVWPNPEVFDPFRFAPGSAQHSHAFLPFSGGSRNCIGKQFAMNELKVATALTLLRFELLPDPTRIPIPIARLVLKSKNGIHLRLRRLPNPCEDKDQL
Sequence of human CYP4F2 (P78329 5-520): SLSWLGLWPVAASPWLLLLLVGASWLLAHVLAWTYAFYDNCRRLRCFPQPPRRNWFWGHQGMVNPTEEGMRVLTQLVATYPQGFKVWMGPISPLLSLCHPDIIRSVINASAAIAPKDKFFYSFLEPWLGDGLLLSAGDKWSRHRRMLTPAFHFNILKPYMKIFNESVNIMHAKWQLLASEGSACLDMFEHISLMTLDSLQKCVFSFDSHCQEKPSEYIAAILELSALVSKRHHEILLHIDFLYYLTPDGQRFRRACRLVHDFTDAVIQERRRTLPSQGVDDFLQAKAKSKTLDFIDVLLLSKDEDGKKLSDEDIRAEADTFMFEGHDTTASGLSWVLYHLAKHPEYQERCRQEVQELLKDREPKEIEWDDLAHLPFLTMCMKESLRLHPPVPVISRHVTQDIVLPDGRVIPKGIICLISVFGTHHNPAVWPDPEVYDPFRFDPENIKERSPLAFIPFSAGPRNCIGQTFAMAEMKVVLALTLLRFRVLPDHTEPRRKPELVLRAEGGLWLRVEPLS

| SMILES | IC50 (human CYP4F2) | IC50 (human CYP4A11) |
| --- | --- | --- |
| O=C(O)C1(CCCCCCCOc2ccc(-c3ccn[nH]3)nc2)CCCC1 [Example 1-45] | 19 nM | 46 nM |
| O=C(O)C1(CCCCCCOc2ccc(-c3ccn[nH]3)nc2)CCCC1 [Example 1-46, 1-[6-[[6-(1H-Pyrazol-5-yl)-3-pyridinyl]oxy]hexyl]-1-cyclopentanecarboxylic Acid] | 370 nM | 66 nM |
| O=C(O)CCCCCOc1ccc(-c2ccn[nH]2)nc1 [Example 1-47, 6-[[6-(1H-Pyrazol-5-yl)-3-pyridinyl]oxy]hexanoic Acid] | 14000 nM | 68 nM |
| O=C(O)CCCCCCCOc1ccc(-c2ccn[nH]2)nc1 [Example 1-48] | 2000 nM | 44 nM |
| O=C(O)C1CCC(COc2ccc(-c3ccn[nH]3)nc2)CC1 (centres unmarked) [Example 1-49] | 24000 nM | 140 nM |
| O=C(O)[C@H]1CC[C@@H](COc2ccc(-c3ccn[nH]3)nc2)CC1 [Example 1-50] | 23000 nM | 170 nM |
| O=C(O)CCCCCCCCOc1ccc(-c2ccn[nH]2)nc1 [Example 1-51] | 200 nM | 54 nM |
| O=C(O)CCCCCCCCCOc1ccc(-c2ccn[nH]2)nc1 [Example 1-52] | 41 nM | 44 nM |
| O=C(O)C1CCCC(COc2ccc(-c3ccn[nH]3)nc2)C1 (centres unmarked) [Example 1-54] | 3400 nM | 57 nM |
| O=C(O)C12CCCC(CCCOc3ccc(-c4ccn[nH]4)nc3)(C1)C2 [Example 1-55] | 3700 nM | 30 nM |
| O=C(O)Cn1ccc(-c2cccc(COc3ccc(-c4ccn[nH]4)nc3)c2)cc1=O [Example 1-58] | 650 nM | 86 nM |
| CC(C)(CCCCOc1ccc(-c2ccn[nH]2)nc1)C(=O)O [Example 1-59] | 17000 nM | 42 nM |
| CC(C)(CCCOc1ccc(-c2ccn[nH]2)nc1)CC(=O)O [Example 1-60] | 31000 nM | 38 nM |
| CC(C)(CCCCCCOc1ccc(-c2ccn[nH]2)nc1)C(=O)O [Example 1-61, 2,2-Dimethyl-8-[[6-(1H-pyrazol-5-yl)-3-pyridinyl]oxy]octanoic Acid] | 1900 nM | 26 nM |
| CC(C)(CCCCCCCOc1ccc(-c2ccn[nH]2)nc1)C(=O)O [Example 1-62] | 96 nM | 23 nM |
| CC(C)(CCCCCCCCOc1ccc(-c2ccn[nH]2)nc1)C(=O)O [Example 1-63] | 8.9 nM | 36 nM |
| CCC(CC)(CCCCOc1ccc(-c2ccn[nH]2)nc1)C(=O)O [Example 1-64, 2,2-Diethyl-6-[[6-(1H-pyrazol-5-yl)-3-pyridinyl]oxy]hexanoic Acid] | 7500 nM | 28 nM |
| COc1ccc(COc2ccc(-c3ccn[nH]3)nc2)cc1C(=O)O [Example 1-65, 2-Methoxy-5-[[6-(1H-pyrazol-5-yl)-3-pyridinyl]oxymethyl]benzoic Acid] | 24000 nM | 1200 nM |
| CC(C)(Oc1cccc(COc2ccc(-c3ccn[nH]3)nc2)n1)C(=O)O [Example 1-66] | > 50000 nM | 330 nM |
| CC(C)(OCCOCCCCOc1ccc(-c2ccn[nH]2)nc1)C(=O)O [Example 1-67] | 10000 nM | 120 nM |
| O=C(O)C1CCc2cc(COc3ccc(-c4ccn[nH]4)nc3)ccc2O1 (centres unmarked) [Example 1-69] | 3000 nM | 75 nM |
| O=C(O)[C@]12CC3C[C@H](C1)[C@H](COc1ccc(-c4ccn[nH]4)nc1)[C@@H](C3)C2 [Example 2-1, trans-4-[[6-(1H-Pyrazol-5-yl)-3-pyridinyl]oxymethyl]-1-adamantanecarboxylic Acid] | 24000 nM | 23 nM |

| SMILES | IC50 (human CYP4F2) | IC50 (human CYP4A11) |
| --- | --- | --- |
| O=C(O)[C@]12CC3C[C@H](C1)[C@@H](COc1ccc(-c4ccn[nH]4)nc1)[C@@H](C3)C2 [Example 2-2, cis-4-[[6-(1H-Pyrazol-5-yl)-3-pyridinyl]oxymethyl]-1-adamantanecarboxylic Acid] | > 50000 nM | 130 nM |
| O=C(O)C1(OCCCCCCCOc2ccc(-c3ccn[nH]3)nc2)CCCC1 [Example 2-3] | 75 nM | 99 nM |
| O=C(O)C1(OCCOCCCCOc2ccc(-c3ccn[nH]3)nc2)CCCC1 [Example 2-4] | 1800 nM | 200 nM |
| O=C(O)CCc1ccccc1CCOc1ccc(-c2ccn[nH]2)nc1 [Example 2-5, 3-[2-[2-[[6-(1H-Pyrazol-5-yl)-3-pyridinyl]oxy]ethyl]phenyl]propanoic Acid] | 8600 nM | 15 nM |
| O=C(O)CCC12CCC(COc3ccc(-c4ccn[nH]4)nc3)(CC1)CC2 [Example 2-7] | 4400 nM | 35 nM |
| O=C(CCCC1(C(=O)O)CCCC1)N1CCC[C@@H](COc2ccc(-c3ccn[nH]3)nc2)C1 [Example 3-2] | 440 nM | 120 nM |
| O=C(CCC1(C(=O)O)CCCC1)N1CCC(CCOc2ccc(-c3ccn[nH]3)nc2)CC1 [Example 3-3] | 2300 nM | 390 nM |
| O=C(CCC1(C(=O)O)CCCC1)N1CCCC(CCOc2ccc(-c3ccn[nH]3)nc2)C1 (centres unmarked) [Example 3-4] | 260 nM | 1800 nM |
| CC(=O)N1CCC(CCCCCCOc2ccc(-c3ccn[nH]3)nc2)(C(=O)O)CC1 [Example 3-5] | 3000 nM | 2200 nM |
| CC(=O)N1CCC(CCCCCCOc2ccc(-c3ccn[nH]3)nc2)(C(=O)O)C1 (centres unmarked) [Example 3-6] | 2700 nM | 810 nM |
| O=C(O)C1(CCCCCCOc2ccc(-c3ccn[nH]3)nc2)CCS(=O)(=O)CC1 [Example 3-7] | 5700 nM | 1600 nM |
| CC(=O)N1CCC(CCCCCCCOc2ccc(-c3ccn[nH]3)nc2)(C(=O)O)CC1 [Example 3-8] | 250 nM | 1200 nM |
| O=C(O)C1(C(=O)NCCCCCCOc2ccc(-c3ccn[nH]3)nc2)CCCC1 [Example 3-9] | 430 nM | 240 nM |
| CN(CCCCCCOc1ccc(-c2ccn[nH]2)nc1)C(=O)C1(C(=O)O)CCCC1 [Example 3-10] | 250 nM | 92 nM |
| O=S(=O)(CCO)c1cccc(COc2ccc(-c3ccn[nH]3)nc2)c1 [Example 3-11] | 290 nM | 55 nM |
| O=C(O)CCCc1cccc(CCOc2ccc(-c3ccn[nH]3)nc2)c1 [Example 4-1, 4-[3-[2-[[6-(1H-Pyrazol-5-yl)-3-pyridinyl]oxy]ethyl]phenyl]butanoic Acid] | 830 nM | 22 nM |
| O=C(O)CCCc1ccc(CCOc2ccc(-c3ccn[nH]3)nc2)cc1 [Example 4-2] | 160 nM | 250 nM |
| O=C(O)c1ccc2c(c1)C(CCOc1ccc(-c3ccn[nH]3)nc1)CCC2 (centres unmarked) [Example 5-2] | 1700 nM | 73 nM |
| CC(=O)N1CCC(CCCCCCCCOc2ccc(-c3ccn[nH]3)nc2)(C(=O)O)CC1 [Example 6-1, 1-Acetyl-4-[8-[[6-(1H-pyrazol-5-yl)-3-pyridinyl]oxy]octyl]-4-piperidinecarboxylic Acid] | 7.9 nM | 770 nM |
| CC(C)(CCOc1ccc(-c2ccn[nH]2)nc1)CCC(=O)O [Example 7-1, 4,4-Dimethyl-6-[[6-(1H-pyrazol-5-yl)-3-pyridinyl]oxy]hexanoic Acid] | 48000 nM | 34 nM |
| O=C(O)[C@H]1CC[C@@H](c2cccc(COc3ccc(-c4ccn[nH]4)nc3)c2)CC1 [Example 8-1, cis-4-[3-[[6-(1H-Pyrazol-5-yl)-3-pyridinyl]oxymethyl]phenyl]-1-cyclohexanecarboxylic Acid] | 790 nM | 20 nM |
